Laboratory results published in publication PMC12042115 (mLife, 2025).
Where two headings read alike, the source gives them in different places.

System: wild‐type BCG cells
Format: cell-based, M. bovis BCG
Details: for Mean_Ratio (GDI5755_3d vs DMSO_3d): down-regulated, 3 d; for Mean Ratio: GDI5755_2d vs DMSO_2d; for Mean Ratio / Mean Ratio (GDI5755_2d vs DMSO_2d): up-regulated; for Mean Ratio (GDI5755_2d vs DMSO_2d): 2d

O=C(Oc1ccc(Cl)cc1)c1ccc(N2CCOCC2)c([N+](=O)[O-])c1 [GDI‐5755]
Mean_Ratio (GDI5755_3d vs DMSO_3d) (protein A0A0H3M2P5, BCG_0207 (Rv0170), MCE-family protein mce1B): 0.7 | Mean Ratio (protein A0A0H3M2Q0 Probable conserved mce associated membrane protein): 1.29 | Mean Ratio (protein A0A0H3M2Q5 Probable conserved transmembrane protein): 1.31 | Mean Ratio (GDI5755_2d vs DMSO_2d) (protein A0A0H3M2T8 Possible conserved membrane protein mmpS5): 1.38 | Mean Ratio (protein A0A0H3M3A7 3-hydroxyacyl-CoA dehydrogenase): 1.27 | Mean_Ratio (GDI5755_3d vs DMSO_3d) (protein A0A0H3M3B6, BCG_1227 (Rv1165), Large ribosomal subunit assembly factor BipA): 0.749 | Mean_Ratio (GDI5755_3d vs DMSO_3d) (protein A0A0H3M3D2, BCG_0932 (Rv0880), Possible transcriptional regulatory protein (Possibly marR-family)): 0.738 | Mean_Ratio (GDI5755_3d vs DMSO_3d) (protein A0A0H3M3H3, BCG_1314 (Rv1254), Probable acyltransferase): 0.748 | Mean Ratio (protein A0A0H3M3I2 Uncharacterized protein): 1.28 | Mean Ratio (protein A0A0H3M3J3 Probable periplasmic oligopeptide-binding lipoprotein oppA): 1.27 | Mean Ratio (GDI5755_2d vs DMSO_2d) (protein A0A0H3M3L0 Conserved hypothetical transmembrane protein): 1.38 | Mean Ratio (protein A0A0H3M3S8 Lipoarabinomannan carrier protein LprG): 1.31 | Mean Ratio (protein A0A0H3M3T4 Possible conserved membrane protein): 1.31 | Mean Ratio (protein A0A0H3M3X9 Probable cation transporter P-type atpase D ctpD): 1.31 | Mean_Ratio (GDI5755_3d vs DMSO_3d) (protein A0A0H3M4A0, BCG_1633 (Rv1595), L-aspartate oxidase): 0.7 | Mean Ratio (GDI5755_2d vs DMSO_2d) (protein A0A0H3M4G0 Lipoprotein lprB): 1.35 | Mean_Ratio (GDI5755_3d vs DMSO_3d) (protein A0A0H3M4I9, BCG_1379c (Rv1318c), Possible adenylate cyclase): 0.7 | Mean_Ratio (GDI5755_3d vs DMSO_3d) (protein A0A0H3M4L2, BCG_1760c (Rv1721c), Antitoxin VapB12): 0.7 | Mean Ratio (protein A0A0H3M4W6 DUF1490 family protein): 1.26 | Mean_Ratio (GDI5755_3d vs DMSO_3d) (protein A0A0H3M5A9, BCG_1670c (Rv1632c), DUF402 domain-containing protein): 0.74 | Mean Ratio (GDI5755_2d vs DMSO_2d) (protein A0A0H3M5C0 RNA polymerase sigma factor): 1.33 | Mean_Ratio (GDI5755_3d vs DMSO_3d) (protein A0A0H3M5G5, BCG_1251, alternative RNA polymerase sigma factor sigI): 0.7 | Mean Ratio (protein A0A0H3M5I2 Uncharacterized protein): 1.28 | Mean Ratio (protein A0A0H3M5J1 Probable serine protease htrA): 1.26 | Mean Ratio (GDI5755_2d vs DMSO_2d) (protein A0A0H3M5K5 DUF4129 domain-containing protein): 1.38 | Mean_Ratio (GDI5755_3d vs DMSO_3d) (protein A0A0H3M5K7, BCG_1305c (Rv1245c), Probable short-chain type dehydrogenase/reductase): 0.7 | Mean Ratio (GDI5755_2d vs DMSO_2d) (protein A0A0H3M5K8 Methylenetetrahydrofolate reductase): 1.33 | Mean_Ratio (GDI5755_3d vs DMSO_3d) (protein A0A0H3M5L3, BCG_1311c (Rv1251c), Uncharacterized protein): 0.76 | Mean Ratio (protein A0A0H3M5L8 1-acylglycerol-3-phosphate O-acyltransferase): 1.26 | Mean Ratio (GDI5755_2d vs DMSO_2d) (protein A0A0H3M5V5 Possible flavoprotein): 1.33 | Mean Ratio (GDI5755_2d vs DMSO_2d) (protein A0A0H3M5V7 Possible transmembrane protein): 1.32 | Mean Ratio (protein A0A0H3M5V9 DUF3145 domain-containing protein): 1.32 | Mean Ratio (GDI5755_2d vs DMSO_2d) (protein A0A0H3M6F8 Probable 'component linked with the assembly of cytochrome' transport transmembrane ATP-binding protein ABC transporter cydC): 1.33 | Mean_Ratio (GDI5755_3d vs DMSO_3d) (protein A0A0H3M6P3, BCG_1740c (Rv1702c), HNH nuclease domain-containing protein): 0.759 | Mean Ratio (protein A0A0H3M6T8 Uncharacterized protein): 1.25 | Mean Ratio (GDI5755_2d vs DMSO_2d) (protein A0A0H3M7A1 Probable conserved membrane protein): 1.33 | Mean Ratio (protein A0A0H3M7A2 (2E)-enoyl-[ACP] glycyltransferase): 1.27 | Mean Ratio (protein A0A0H3M7D2 Quinone oxidoreductase): 1.25 | Mean_Ratio (GDI5755_3d vs DMSO_3d) (protein A0A0H3M7E6, BCG_0206 (Rv0169), MCE-family protein mce1A): 0.7 | Mean_Ratio (GDI5755_3d vs DMSO_3d) (protein A0A0H3M7F0, BCG_0211 (Rv0174), MCE-family protein mce1F): 0.7 | Mean Ratio (GDI5755_2d vs DMSO_2d) (protein A0A0H3M7F7 Hemerythrin-like domain-containing protein): 1.39 | Mean Ratio (protein A0A0H3M7J3 UspA domain-containing protein): 1.27 | Mean Ratio (protein A0A0H3M7L3 Succinate dehydrogenase [membrane anchor subunit]): 1.25 | Mean Ratio (protein A0A0H3M7L4 Possible transmembrane protein dedA): 1.29 | Mean Ratio (protein A0A0H3M7L9 Probable arsenic-transport integral membrane protein arsC): 1.30 | Mean Ratio (protein A0A0H3M7M0 Posible transcriptional regulatory protein): 1.27 | Mean_Ratio (GDI5755_3d vs DMSO_3d) (protein A0A0H3M7M6, BCG_2876 (Rv2856), Nickel/cobalt efflux system): 0.7 | Mean Ratio (protein A0A0H3M7N4 Possible secreted protease): 1.32 | Mean_Ratio (GDI5755_3d vs DMSO_3d) (protein A0A0H3M7R0, BCG_0355, Possible beta-1,3-glucanase): 0.7 | Mean Ratio (protein A0A0H3M7R4 Probable membrane protein): 1.30 | Mean_Ratio (GDI5755_3d vs DMSO_3d) (protein A0A0H3M7T2, BCG_2131, Uncharacterized protein): 0.742 | Mean_Ratio (GDI5755_3d vs DMSO_3d) (protein A0A0H3M7W0, BCG_2977 (Rv2956), Methyltransferase FkbM domain-containing protein): 0.7 | Mean Ratio (protein A0A0H3M7X0 Probable conserved transmembrane protein): 1.28 | Mean Ratio (protein A0A0H3M7X3 Probable conserved transmembrane protein): 1.32 | Mean_Ratio (GDI5755_3d vs DMSO_3d) (protein A0A0H3M7Y1, BCG_0442 (Rv0404), Probable fatty-acid-CoA ligase fadD30): 0.7 | Mean_Ratio (GDI5755_3d vs DMSO_3d) (protein A0A0H3M7Y6, BCG_2210 (Rv2194), Cytochrome bc1 complex cytochrome c subunit, qcrC): 0.747 | Mean Ratio (protein A0A0H3M8J5 Protein translocase subunit SecE): 1.31 | Mean Ratio (GDI5755_2d vs DMSO_2d) (protein A0A0H3M8K7 DUF4333 domain-containing protein): 1.33 | Mean Ratio (protein A0A0H3M8L8 Probable FeIII-dicitrate-binding periplasmic lipoprotein fecB): 1.27 | Mean Ratio (protein A0A0H3M8M0 Conserved hypothetical threonine rich protein): 1.26 | Mean Ratio (protein A0A0H3M8Q9 Probable short-chain type dehydrogenase/reductase): 1.27 | Mean_Ratio (GDI5755_3d vs DMSO_3d) (protein A0A0H3M8T3, BCG_3410 (Rv3340), Probable O-acetylhomoserine sulfhydrylase metC): 0.7 | Mean Ratio (protein A0A0H3M8V5 Possible transcriptional regulatory protein (Probably tetR-family)): 1.29 | Mean_Ratio (GDI5755_3d vs DMSO_3d) (protein A0A0H3M8X7, BCG_3431 (Rv3359), Possible oxidoreductase): 0.737 | Mean Ratio (GDI5755_2d vs DMSO_2d) (protein A0A0H3M8X9 Probable oxidase): 1.33 | Mean_Ratio (GDI5755_3d vs DMSO_3d) (protein A0A0H3M8Y4, BCG_3436c (Rv3364c), Roadblock/LAMTOR2 domain-containing protein/Serine protease inhibitor): 0.75
